Assay results taken from patent US20060178415A1, “Azole derivatives as antifungal agents” (priority 2002, published 2006).
Values after ≈ are worked out from the molar mass of the structure shown. Read-outs that look alike come from different tables or passages of the source.

Test system: A. fum.
Assay: In vitro antifungal MIC, NCCLS M38P broth method in RPMI 1640/MOPS pH 7
Format: cell-based, Aspergillus fumigatus
Settings: for MIC: Aspergillus fumigatus
From the text: The in vitro evaluation of the antifungal activity of the compound of this invention (as shown in Table I) can be performed by determining the minimum inhibitory concentration (MIC) which is the concentration of the test compound in Rosewell Park Memorial Institute (RPMI) 1640 liquid medium buffered with 3-(Morpholino)propane sulfonic acid (MOPS) to pH 7, at which there is significant inhibition of the particular fungi. In practice the National Committee for Clinical Laboratory Standard (NCCLS) M27A document for Candida and Cryptococcus and M38P for Aspergillus was used to determine the MIC and readings recorded only when the Quality Control results fell into the acceptable range. After MIC results had been recorded, 100 μL from each of the well showing no growth was spread over Sabouraud Dextrose Agar (SDA) to determine the minimum fungicidal concentration (MFC).

[1] = A. fumigatus strain 1008, RPMI 1640, MOPS pH 7
[2] = A. fumigatus strain Si-l, RPMI 1640, MOPS pH 7
[3] = A. fumigatus strain 1008, RPMI 1640, MOPS pH 7, read-out: MIC (A. fum.) 1008
[4] = A. fumigatus strain Si-l, RPMI 1640, MOPS pH 7, read-out: MIC (A. fum.) Si-l
[5] = pH 7, read-out: MIC (A. fum.) 1008
[6] = pH 7, read-out: MIC (A. fum.) Si-l

Molecule	MIC [3]	MIC [4]	further results
1-t-Butoxycarbonyl-2-[(1R,2R)-2-(2,4-difluorophenyl)-2-hydroxy-1-methyl-3-(1H-1,2,4-triazol-1-yl)propyl]-4-[4-[4-chlorophenyl]piperizin-1-yl]phenyl]thiosemicarbazide [Compound No. 12]			MIC (A. fum.) 1008 [1]: 0.25 µg/mL; MIC (A. fum.) Si-l [2]: 0.25 µg/mL
C[C@@H](N(NC(=O)OC(C)(C)C)C(=S)Nc1ccc(F)cc1)[C@](O)(Cn1cncn1)c1ccc(F)cc1F [Compound No. 1]	> 16 µg/mL	> 16 µg/mL	
C[C@@H](N(NC(=O)OC(C)(C)C)C(=S)Nc1ccc(F)cc1F)[C@](O)(Cn1cncn1)c1ccc(F)cc1F [Compound No. 2, 1-t-Butoxycarbonyl-2-[(1R,2R)-2-(2,4-difluorophenyl)-2-hydroxy-1-methyl-3-(1H-1,2,4-triazol-1-yl)propyl]-4-[2,4-difluorophenyl]thiosemicarbazide]	> 16 µg/mL	> 16 µg/mL	
COc1ccc(NC(=S)N(NC(=O)OC(C)(C)C)[C@H](C)[C@](O)(Cn2cncn2)c2ccc(F)cc2F)c(OC)c1 [Compound No. 4, 1-t-Butoxycarbonyl-2-[(1R,2R)-2-(2,4-difluorophenyl)-2-hydroxy-1-methyl-3-(1H-1,2,4-triazol-1-yl)propyl]-4-[2,4-dimethoxyphenyl]thiosemicarbazide]	> 16 µg/mL	> 16 µg/mL	
C[C@@H](N(NC(=O)OC(C)(C)C)C(=S)Nc1ccc(OC2CCCCO2)cc1)[C@](O)(Cn1cncn1)c1ccc(F)cc1F (stereo partly drawn) [Compound No. 5, 1-t-Butoxycarbonyl-2-[(1R,2R)-2-(2,4-difluorophenyl)-2-hydroxy-1-methyl-3-(1H-1,2,4-triazol-1-yl)propyl]-4-[4-(tetrahydropyranyloxy)phenyl]thiosemicarbazide]	> 16 µg/mL	> 16 µg/mL	
C[C@@H](N(NC(=O)OC(C)(C)C)C(=S)Nc1ccc(OC(F)(F)F)cc1)[C@](O)(Cn1cncn1)c1ccc(F)cc1F [Compound No. 6, 1-t-Butoxycarbonyl-2-[(1R,2R)-2-(2,4-difluorophenyl)-2-hydroxy-1-methyl-3-(1H-1,2,4-triazol-1-yl)propyl]-4-[4-trifluoromethoxyphenyl]thiosemicarbazide]	8 µg/mL (≈ 13.3 µM)	8 µg/mL (≈ 13.3 µM)	
C[C@@H](N(NC(=O)OC(C)(C)C)C(=S)Nc1ccc(OCC(F)(F)C(F)F)cc1)[C@](O)(Cn1cncn1)c1ccc(F)cc1F [Compound No. 7, 1-t-Butoxycarbonyl-2-[(1R,2R)-2-(2,4-difluorophenyl)-2-hydroxy-1-methyl-3-(1H-1,2,4-triazol-1-yl)propyl]-4-[4-(2,2,3,3-tetrafluoropropoxy)phenyl]thiosemicarbazide]	4 µg/mL (≈ 6.17 µM)	4 µg/mL (≈ 6.17 µM)	
C[C@@H](N(NC(=O)OC(C)(C)C)C(=S)Nc1ccc([N+](=O)[O-])cc1)[C@](O)(Cn1cncn1)c1ccc(F)cc1F [Compound No. 8, 1-t-Butoxycarbonyl-2-[(1R,2R)-2-(2,4difluorophenyl)-2-hydroxy-1-methyl-3-(1H-1,2,4-triazol-1-yl)propyl]-4-[4-nitrophenyl]thiosemicarbazide]			MIC [5]: > 16 µg/mL; MIC [6]: > 16 µg/mL
C[C@@H](N(NC(=O)OC(C)(C)C)C(=S)Nc1ccc(-n2cnnn2)cc1)[C@](O)(Cn1cncn1)c1ccc(F)cc1F [Compound No. 9, 1-t-Butoxycarbonyl-2-[(1R,2R)-2-(2,4-difluorophenyl)-2-hydroxy-1-methyl-3-(1H-1,2,4-triazol-1-yl)propyl]-4-[4-([1,2,3,4-tetrazol-1-yl])phenyl]thiosemicarbazide]	> 16 µg/mL	> 16 µg/mL	
C[C@@H](N(NC(=O)OC(C)(C)C)C(=S)Nc1ccc(-n2ncnn2)cc1)[C@](O)(Cn1cncn1)c1ccc(F)cc1F [Compound No. 10, 1-t-Butoxycarbonyl-2-[(1R,2R)-2-(2,4-difluorophenyl)-2-hydroxy-1-methyl-3-(1H-1,2,4-triazol-1-yl)propyl]-4-[4-(1,2,3,4-tetrazol-2-yl)phenyl]thiosemicarbazide]	> 16 µg/mL	> 16 µg/mL	
C[C@@H](N(NC(=O)OC(C)(C)C)C(=S)Nc1cccc2ccccc12)[C@](O)(Cn1cncn1)c1ccc(F)cc1F [Compound No. 14]			MIC (A. fum.) 1008 [1]: >16 µg/mL; MIC (A. fum.) Si-l [2]: >16 µg/mL
CCCCCCCCNC(=S)N(NC(=O)OC(C)(C)C)[C@H](C)[C@](O)(Cn1cncn1)c1ccc(F)cc1F [Compound No. 15]			MIC (A. fum.) 1008 [1]: >16 µg/mL; MIC (A. fum.) Si-l [2]: >16 µg/mL
C[C@@H](N(NC(=O)OC(C)(C)C)C(=O)Nc1ccc(Cl)cc1)[C@](O)(Cn1cncn1)c1ccc(F)cc1F [Compound No. 25, 1-t-Butoxycarbonyl-2-[(1R,2R)-2-(2,4-difluorophenyl)-2-hydroxy-1-methyl-3-(1H-1,2,4-triazol-1-yl)propyl]-4-[4-chlorophenyl]semicarbazide]			MIC [5]: > 16 µg/mL; MIC [6]: > 16 µg/mL
C[C@@H](N(NC(=O)OC(C)(C)C)C(=O)Nc1ccc(OCC(F)(F)C(F)F)cc1)[C@](O)(Cn1cncn1)c1ccc(F)cc1F [Compound No. 26, 1-t-Butoxycarbonyl-2-[(1R,2R)-2-(2,4-difluorophenyl)-2-hydroxy-1-methyl-3-(1H-1,2,4-triazol-1-yl)propyl]-4-[4(2,2,3,3-tetrafluoropropoxy)phenyl]semicarbazide]	> 16 µg/mL	> 16 µg/mL	
COc1ccc(NC(=O)N(NC(=O)OC(C)(C)C)[C@H](C)[C@](O)(Cn2cncn2)c2ccc(F)cc2F)c(OC)c1 [Compound No. 27, 1-t-Butoxycarbonyl-2-[(1R,2R)-2-(2,4-difluorophenyl)-2-hydroxy-1-methyl-3-(1H-1,2,4-triazol-1-yl)propyl]-4-[2,4-dimethoxyphenyl]semicarbazide]	> 16 µg/mL	> 16 µg/mL	
C[C@@H](N(N)C(=O)Nc1ccc(Cl)cc1)[C@](O)(Cn1cncn1)c1ccc(F)cc1F [Compound No. 28, 2-[(1R,2R)-2-(2,4-difluorophenyl)-2-hydroxy-1-methyl-3-(1H-1,2,4-triazol-1-yl)propyl]-4-[4-chlorophenyl]semicarbazide]			MIC [5]: > 16 µg/mL; MIC [6]: > 16 µg/mL
C[C@@H](N(N)C(=S)Nc1ccccc1)[C@](O)(Cn1cncn1)c1ccc(F)cc1F [Compound No. 29, 2-[(1R,2R)-2-(2,4-difluorophenyl)-2-hydroxy-1-methyl-3-(1H-1,2,4-triazol-1-yl)propyl]-4-phenyl thiosemicarbazide]	> 16 µg/mL	> 16 µg/mL	
C[C@@H](N(N)C(=S)Nc1ccc(O)cc1)[C@](O)(Cn1cncn1)c1ccc(F)cc1F [Compound No. 30, 2-[(1R,2R)-2-(2,4-difluorophenyl)-2-hydroxy-1-methyl-3-(1H-1,2,4-triazol-1-yl)propyl]-4-[4-hydroxyphenyl]thiosemicarbazide]			MIC [5]: > 16 µg/mL; MIC [6]: > 16 µg/mL
C[C@@H](N(N)C(=S)Nc1ccc(OCC(F)(F)C(F)F)cc1)[C@](O)(Cn1cncn1)c1ccc(F)cc1F [Compound No. 31, 2-[(1R,2R)-2-(2,4-difluorophenyl)-2-hydroxy-1-methyl-3-(1H-1,2,4-triazol-1-yl)propyl]-4-[4-(2,2,3,3-tetrafluoropropoxy)phenyl]thiosemicarbazide]	1 µg/mL (≈ 1.82 µM)	0.25 µg/mL (≈ 0.456 µM)	
COc1ccc(NC(=S)N(N)[C@H](C)[C@](O)(Cn2cncn2)c2ccc(F)cc2F)c(OC)c1 [Compound No. 32, 2-[(1R,2R)-2-(2,4-difluorophenyl)-2-hydroxy-1-methyl-3-(1H-1,2,4-triazol-1-yl)propyl]-4-[2,4-dimethoxyphenyl]thiosemicarbazide]	> 16 µg/mL	> 16 µg/mL	
C[C@@H](N(N)C(=S)Nc1ccc(C(F)(F)F)cc1)[C@](O)(Cn1cncn1)c1ccc(F)cc1F [Compound No. 33, 2-[(1R,2R)-2-(2,4-difluorophenyl)-2-hydroxy-1-methyl-3-(1H-1,2,4-triazol-1-yl)propyl]-4-[4-trifluoromethylphenyl]thiosemicarbazide]	4 µg/mL (≈ 8.22 µM)	2 µg/mL (≈ 4.11 µM)	
C[C@@H](N(N)C(=S)Nc1ccc(OC(F)(F)F)cc1)[C@](O)(Cn1cncn1)c1ccc(F)cc1F [Compound No. 34, 2-[(1R,2R)-2-(2,4-Difluorophenyl)-2-hydroxy-1-methyl-3-(1H-1,2,4-triazol-1-yl)propyl]-4-[4-trifluoromethoxyphenyl]thiosemicarbazide]	2 µg/mL (≈ 3.98 µM)	2 µg/mL (≈ 3.98 µM)	
C[C@@H](N(N)C(=S)NCc1ccco1)[C@](O)(Cn1cncn1)c1ccc(F)cc1F [Compound No. 35, 2-[(1R,2R)-2-(2,4-difluorophenyl)-2-hydroxy-1-methyl-3-(1H-1,2,4-triazol-1-yl)propyl]-4-[2-furanmethyl]thiosemicarbazide]			MIC (A. fum.) 1008 [1]: 4 µg/mL (≈ 9.47 µM); MIC (A. fum.) Si-l [2]: 4 µg/mL (≈ 9.47 µM)
C[C@@H](N(N)C(=S)NCc1cccs1)[C@](O)(Cn1cncn1)c1ccc(F)cc1F [Compound No. 36, 2-[(1R,2R)-2-(2,4-difluorophenyl)-2-hydroxy-1-methyl-3-(1H-1,2,4-triazol-1-yl)propyl]-4-[2-thiophenmethyl]thiosemicarbazide]			MIC (A. fum.) 1008 [1]: 4 µg/mL (≈ 9.12 µM); MIC (A. fum.) Si-l [2]: 2 µg/mL (≈ 4.56 µM)
C[C@@H](N(N)C(=S)Nc1ccc(Cl)cn1)[C@](O)(Cn1cncn1)c1ccc(F)cc1F [Compound No. 37, 2-[(1R,2R)-2-(2,4-Difluorophenyl)-2-hydroxy-1-methyl-3-(1H-1,2,4-triazol-1-yl)propyl]-4-[3-chloropyridin-6-yl]thiosemicarbazide]	0.5 µg/mL (≈ 1.1 µM)	1 µg/mL (≈ 2.2 µM)	
